Source: patent US8415486B2, “IAP inhibitors” (TetraLogic Pharmaceuticals Corp., priority 2009, dated 2013)

Columns and labels:
[1] = biological target: T1, XIAP BIR-3 (Homo sapiens, UniProt P98170); assay: Fluorescence polarization binding to XIAP BIR-3 with labeled peptide AbuRPF-K(5-Fam)-NH2; settings: 40 nM BIR3, 5 nM labeled peptide, reported as ranges
T1 construct: 40 nM of the respective IAP BIR3
Experimental: (§1) The binding affinities of the compounds are reported as a KD value (μM). Briefly, various concentrations of test peptides were mixed with 5 nM of the fluorescently labeled peptide (i.e., a mutated N-terminal Smac peptide—AbuRPF-K(5-Fam)-NH2) and 40 nM of the respective IAP BIR3 for 15 min at RT in […] of 0.1M Potassium Phosphate buffer, pH 7.5 containing 100 mg/ml bovine g-globulin. Following incubation, the polarization values (mP) were measured on a Victor2V (available from PerkinElmer Life Sciences) using a 485 nm excitation filter and a 520 nm emission filter. The reported binding affinities (KD values) are supplied as ranges (A=<0.1 μM, B=0.1 μM to 1 μM, C=>1 μM to 10 μM, D=>10 μM).

[2] = system: ovarian cancer cell line, SK-OV-3; assay: SK-OV-3 cell growth inhibition (MTT, 72 hrs); assay type: cell-based; settings: Homo sapiens, concentration giving 50% cell survival, reported as ranges
Experimental: Compounds of the invention also were tested for their ability to inhibit the growth of an ovarian cancer cell line, SK-OV-3. A known assay previously used for measuring cell growth (as described in Hansen, M. B., Nielsen, S. E., and Berg, K. (1989) J. Immunol. Methods 119, 203-210 and incorporated herein by reference in its entirety) was used. Briefly, SK-OV-3 cells are seeded in 96-well plates in McCoy's medium containing 10% fetal bovine serum albumin (5,000 per well) and incubated overnight at 37° C. The next day, test compounds are added at various concentrations (0.003-10 μM) and the plates are incubated at 37° C. for an additional 72 hrs. This incubation time was considered to be optimal for measuring inhibitory effects of the different compounds tested. 50 microliters of 5 mg/mL MTT reagent is added to each well and the plates are incubated at 37° C. for another three (3) hours. At the end of the three (3) hour incubation period, 50 microliters of DMSO is added to each well to dissolve cells and the optical density (OD) of the wells is measured with a microplate reader (Victor^2 1420, Wallac, Finland) at 535 nm. Cell survival (CS) was calculated using the following equation: CS=(OD treated well/mean OD control wells)×100%.
The CC50 (reported in the following tables), is defined as the drug concentration that results in 50% cell survival (CS), and is derived by calculating the point where the dose-response curve crosses the 50% CS point using GraphPad Prism. The reported CC50 values are supplied as ranges (A=<0.1 μM, B=0.1 μM to 1 μM, C=>1 μM to 10 μM, D=>10 μM).

[3] = biological target: T2, cIAP-1 BIR-3 (Homo sapiens, UniProt Q13490); assay: Fluorescence polarization binding to cIAP-1 BIR-3 with labeled peptide AbuRPF-K(5-Fam)-NH2; settings: 40 nM BIR3, 5 nM labeled peptide, reported as ranges, read-out: KD (c-IAP-1 BIR3)
T2 construct: 40 nM of the respective IAP BIR3
Experimental: as §1

T2 sequence (Q13490 253-363 limits assumed): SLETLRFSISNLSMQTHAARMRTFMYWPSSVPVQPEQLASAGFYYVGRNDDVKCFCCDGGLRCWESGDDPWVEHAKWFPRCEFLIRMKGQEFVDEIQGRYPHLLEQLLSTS
T1 sequence (P98170 241-356 limits assumed): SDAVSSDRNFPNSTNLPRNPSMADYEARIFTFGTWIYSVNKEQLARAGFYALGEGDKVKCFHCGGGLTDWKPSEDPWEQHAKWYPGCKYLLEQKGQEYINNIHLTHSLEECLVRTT

SMILES	Kd [1]	CC50 [2]	Kd [3]
CN[C@@H](C)C(=O)N[C@H](C(=O)N1CC[C@@H]2[C@H]1[C@@H](OC(=O)Nc1cccc3ccccc13)CN2C(=O)NC(C)C)C(C)(C)C [Example 49, Naphthalen-1-yl-carbamic acid 4-[3,3-dimethyl-2-(2-methylamino-propionylamino)-butyryl]-1-isopropylcarbamoyl-octahydro-pyrrolo[3,2-b]pyrrol-3-yl ester]	100 to 1000 nM	< 100 nM	< 100 nM
CN[C@@H](C)C(=O)N[C@H](C(=O)N1CC[C@@H]2[C@H]1[C@@H](Oc1ccc(F)c(F)c1)CN2C(C)=O)C(C)(C)C [Example 21, N-{1-[4-Acetyl-6-(3,4-difluoro-phenoxy)-hexahydro-pyrrolo[3,2-b]pyrrole-1-carbonyl]-2,2-dimethyl-propyl}-2-methylamino-propionamide]	100 to 1000 nM	< 100 nM	< 100 nM
CN[C@@H](C)C(=O)N[C@H](C(=O)N1CC[C@@H]2[C@H]1[C@@H](Oc1ccc(F)c(F)c1)CN2S(C)(=O)=O)C(C)(C)C [Example 19, N-{1-[6-(3,4-Difluoro-phenoxy)-4-methanesulfonyl-hexahydro-pyrrolo[3,2-b]pyrrole-1-carbonyl]-2,2-dimethyl-propyl}-2-methylamino-propionamide]	< 100 nM	< 100 nM	< 100 nM
CN[C@@H](C)C(=O)N[C@H](C(=O)N1CC[C@@H]2[C@H]1[C@@H](Oc1ccc(F)c(F)c1)CN2c1ncccn1)C(C)(C)C [Example 18, N-{1-[6-(3,4-Difluoro-phenoxy)-4-pyrimidin-2-yl-hexahydro-pyrrolo[3,2-b]pyrrole-1-carbonyl]-2,2-dimethyl-propyl}-2-methylamino-propionamide]	< 100 nM	< 100 nM	< 100 nM
CN[C@@H](C)C(=O)N[C@H](C(=O)N1CC[C@@H]2[C@H]1[C@@H](COc1ccc(F)c(F)c1)CN2C(C)=O)C(C)(C)C [Example 65, N-{1-[4-Acetyl-6-(3,4-difluoro-phenoxymethyl)-hexahydro-pyrrolo[3,2-b]pyrrole-1-carbonyl]-2,2-dimethyl-propyl}-2-methylamino propionamide]	< 100 nM	< 100 nM	< 100 nM
CN[C@@H](C)C(=O)N[C@H](C(=O)N1CC[C@@H]2[C@H]1[C@@H](COc1ccc(F)c(F)c1)CN2S(C)(=O)=O)C(C)(C)C [Example 63, N-{1-[6-(3,4-Difluoro-phenoxymethyl)-4-methanesulfonyl-hexahydro-pyrrolo[3,2-b]pyrrole-1-carbonyl}-2,2-dimethyl-propyl]-2-methylamino propionamide]	< 100 nM	< 100 nM	< 100 nM
CNC(C)C(=O)NC(C(=O)N1CCC2C1C(OC(=O)NCc1ccccc1)CN2C(=O)NC(C)C)C(C)(C)C (stereo not drawn) [Example 46, Benzyl-carbamic acid 4-[3,3-dimethyl-2-(2-methylamino-propionylamino)-butyryl]-1-isopropylcarbamoyl-octahydro-pyrrolo[3,2-b]pyrrol-3-yl ester]	100 to 1000 nM	< 100 nM	< 100 nM
CN[C@@H](C)C(=O)N[C@H](C(=O)N1CC[C@@H]2[C@H]1[C@@H](OC(=O)NC(C)(C)C)CN2C(=O)NC(C)C)C(C)(C)C [Example 55, tert-Butyl-carbamic acid 4-[3,3-dimethyl-2-(2-methylamino-propionylamino)-butyryl]-1-isopropylcarbamoyl-octahydro-pyrrolo[3,2-b]pyrrol-3-yl ester]	1000 to 10000 nM	100 to 1000 nM	< 100 nM
CN[C@@H](CF)C(=O)N[C@H](C(=O)N1CC[C@@H]2[C@H]1[C@@H](OCc1ccccc1)CN2C(=O)OC(C)(C)C)C1CCCCC1 [Example 32, 3-Benzyloxy-4-[2-cyclohexyl-2-(3-fluoro-2-methylamino-propionylamino)-acetyl]-hexahydro-pyrrolo[3,2-b]pyrrole-1-carboxylic acid tert-butyl ester]	< 100 nM	100 to 1000 nM	< 100 nM
CN[C@@H](C)C(=O)N[C@H](C(=O)N1CC[C@@H]2[C@H]1[C@@H](OCc1ccc(F)cc1)CN2C(=O)CC(C)C)C(C)(C)C [Example 39, N-{1-[6-(4-Fluoro-benzyloxy)-4-(3-methyl-butyryl)-hexahydro-pyrrolo[3,2-b]pyrrole-1-carbonyl]-2,2-dimethyl-propyl}-2-methylamino-propionamide]	< 100 nM	< 100 nM	< 100 nM
CN[C@@H](C)C(=O)N[C@H](C(=O)N1CC[C@@H]2[C@H]1[C@@H](OCc1ccc(F)cc1)CN2C1CCOCC1)C(C)(C)C [Example 43, (S)—N—((S)-1-((3aR,6S,6aS)-6-(4-fluorobenzyloxy)-4-(tetrahydro-2H-pyran-4-yl)hexahydropyrrolo[3,2-b]pyrrol-1(2H)-yl)-3,3-dimethyl-1-oxobutan-2-yl)-2-(methylamino)propanamide]	100 to 1000 nM	< 100 nM	< 100 nM
CN[C@@H](C)C(=O)N[C@H](C(=O)N1CC[C@@H]2[C@H]1[C@@H](Oc1ccc(F)c(F)c1)CN2C(=O)N(C)C)C(C)(C)C [Example 25, 3-(3,4-Difluoro-phenoxy)-4-[3,3-dimethyl-2-(2-methylamino-propionylamino)-butyryl]-hexahydro-pyrrolo[3,2-b]pyrrole-1-carboxylic acid dimethylamide]	< 100 nM	< 100 nM	< 100 nM
CN[C@@H](C)C(=O)N[C@H](C(=O)N1CC[C@H]2NC[C@H](Oc3ccc4ccccc4c3)[C@H]21)C1CCCCC1 [Example 7, N-{1-Cyclohexyl-2-[6-(naphthalen-2-yloxy)-hexahydro-pyrrolo[3,2-b]pyrrol-1-yl]-2-oxo-ethyl}-2-methylamino-propionamide]	< 100 nM	< 100 nM	< 100 nM
CN[C@@H](C)C(=O)N[C@H](C(=O)N1CC[C@@H]2[C@H]1[C@@H](COc1ccc(F)c(F)c1)CN2C(=O)C1CC1)C(C)(C)C [Example 69, N-{1-[4-Cyclopropanecarbonyl-6-(3,4-difluoro-phenoxymethyl)-hexahydro-pyrrolo[3,2-b]pyrrole-1-carbonyl]-2,2-dimethyl-propyl}-2-methylamino propionamide]	100 to 1000 nM	< 100 nM	< 100 nM
CN[C@@H](C)C(=O)N[C@H](C(=O)N1CC[C@@H]2[C@H]1[C@@H](COc1ccc(F)c(F)c1)CN2C(=O)NC(C)C)C(C)(C)C [Example 67, 3-(3,4-Difluoro-phenoxymethyl)-4-[3.3-dimethyl-2-(2-methylaminopropionylamino)-butyryl]-hexahydro-pyrrolo[3,2-b]pyrrole-1-carboxylic acid isopropylamide]	< 100 nM	< 100 nM	< 100 nM
CN[C@@H](C)C(=O)N[C@H](C(=O)N1CC[C@@H]2[C@H]1[C@@H](OC(=O)Nc1ccccc1)CN2C(=O)NC(C)C)C(C)(C)C [Example 47, Phenyl-carbamic acid 4-[3,3-dimethyl-2-(2-methylamino-propionylamino)-butyryl]-1-isopropylcarbamoyl-octahydro-pyrrolo[3,2-b]pyrrol-3-yl ester]	100 to 1000 nM	< 100 nM	< 100 nM
CN[C@@H](C)C(=O)N[C@H](C(=O)N1CC[C@@H]2[C@H]1[C@@H](OCc1ccc(F)cc1)CN2C(=O)NCc1ccccc1)C(C)(C)C [Example 30, 4-[3,3-Dimethyl-2-(2-methylamino-propionylamino)-butyryl]-3-(4-fluoro-benzyloxy)-hexahydro-pyrrolo[3,2-b]pyrrole-1-carboxylic acid benzylamide]	< 100 nM	< 100 nM	< 100 nM
CN[C@@H](C)C(=O)N[C@H](C(=O)N1CC[C@@H]2[C@H]1[C@@H](Oc1ccc(F)cc1)CN2C(=O)NC(C)C)C1CCCCC1 [Example 28, 4-[2-Cyclohexyl-2-(2-methylamino-propionylamino)-acetyl]-3-(4-fluoro-phenoxy)-hexahydro-pyrrolo[3,2-b]pyrrole-1-carboxylic acid isopropylamide]	< 100 nM	< 100 nM	< 100 nM
